From the supplement of paper PMC10307832

How the values were obtained:
Assay in all cases: relative viability (nuclei count vs DMSO), 5 days (fraction); higher = more cells survive
[1] = compound: C[C@@H](Oc1cc(-c2cnn(C3CCNCC3)c2)cnc1N)c1c(Cl)ccc(F)c1Cl [Crizotinib] + CC(C)C[C@H](NC(=O)[C@H](Cc1ccccc1)NC(=O)c1cnccn1)B(O)O [Bortezomib] (partner 0.002 µM)
In short: (§1)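 Lung cancer cell lines in 1536-well plates got either a single drug or a fixed anchor-drug dose together with five library-drug doses (not always all listed) in √10 steps, by pin tool, on the day after seeding. Nuclei were counted after 5 days, and relative viability is the treated-to-vehicle ratio of nuclei counts. Values are medians of duplicate plates.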

[2] = compound: CC(C)C[C@H](NC(=O)[C@H](CCc1ccccc1)NC(=O)CN1CCOCC1)C(=O)N[C@@H](Cc1ccccc1)C(=O)N[C@@H](CC(C)C)C(=O)[C@@]1(C)CO1 [Carfilzomib] + Cc1cc(Nc2cc(N3CCN(C)CC3)nc(Sc3ccc(NC(=O)C4CC4)cc3)n2)n[nH]1 [Tozasertib] (partner 0.1 µM)
In short: as §1

[3] = compound: CC(C)C[C@H](NC(=O)[C@H](CCc1ccccc1)NC(=O)CN1CCOCC1)C(=O)N[C@@H](Cc1ccccc1)C(=O)N[C@@H](CC(C)C)C(=O)[C@@]1(C)CO1 [Carfilzomib] + COc1cc2c(Oc3ccc(NC(=O)C4(C(=O)Nc5ccc(F)cc5)CC4)cc3F)ccnc2cc1OCCCN1CCOCC1 [Foretinib] (partner 0.25 µM)
In short: as §1

[4] = compound: CC(C)C[C@H](NC(=O)[C@H](CCc1ccccc1)NC(=O)CN1CCOCC1)C(=O)N[C@@H](Cc1ccccc1)C(=O)N[C@@H](CC(C)C)C(=O)[C@@]1(C)CO1 [Carfilzomib] + Nc1nc2[nH]cc(CCc3ccc(C(=O)N[C@@H](CCC(=O)O)C(=O)O)cc3)c2c(=O)[nH]1 [Pemetrexed] (partner 0.2 µM)
In short: as §1

ChaGo-K-1
relative viability ([1]; first compound 0.01 µM): 0.947
relative viability ([1]; first compound 0.1 µM): 1.2
relative viability ([1]; first compound 1 µM): 0.96
relative viability ([2]; first compound 0.001 µM): 0.207
relative viability ([2]; first compound 0.003162 µM): 0.236
relative viability ([2]; first compound 0.01 µM): 0.224
relative viability ([2]; first compound 0.03162 µM): 0.225
relative viability ([2]; first compound 0.1 µM): 0.157
relative viability ([3]; first compound 0.001 µM): 0.941
relative viability ([3]; first compound 0.003162 µM): 0.991
relative viability ([3]; first compound 0.01 µM): 0.859
relative viability ([3]; first compound 0.03162 µM): 0.62
relative viability ([3]; first compound 0.1 µM): 0.172
relative viability ([4]; first compound 0.001 µM): 0.27
relative viability ([4]; first compound 0.003162 µM): 0.258
relative viability ([4]; first compound 0.01 µM): 0.258
relative viability ([4]; first compound 0.03162 µM): 0.262
relative viability ([4]; first compound 0.1 µM): 0.179

EBC-1
relative viability ([1]; first compound 0.01 µM): 0.599
relative viability ([1]; first compound 0.03162 µM): 0.564
relative viability ([1]; first compound 0.1 µM): 0.28
relative viability ([1]; first compound 0.3162 µM): 0.231
relative viability ([1]; first compound 1 µM): 0.259
relative viability ([3]; first compound 0.001 µM): 0.0996
relative viability ([3]; first compound 0.003162 µM): 0.124
relative viability ([3]; first compound 0.01 µM): 0.121
relative viability ([3]; first compound 0.03162 µM): 0.0586
relative viability ([3]; first compound 0.1 µM): 0.0611

EKVX
relative viability ([1]; first compound 0.01 µM): 1.06
relative viability ([1]; first compound 0.03162 µM): 1.05
relative viability ([1]; first compound 0.1 µM): 0.959
relative viability ([1]; first compound 0.3162 µM): 0.934
relative viability ([1]; first compound 1 µM): 1.1
relative viability ([2]; first compound 0.001 µM): 0.346
relative viability ([2]; first compound 0.003162 µM): 0.432
relative viability ([2]; first compound 0.01 µM): 0.435
relative viability ([2]; first compound 0.03162 µM): 0.34
relative viability ([2]; first compound 0.1 µM): 0.281
relative viability ([3]; first compound 0.001 µM): 0.51
relative viability ([3]; first compound 0.003162 µM): 0.945
relative viability ([3]; first compound 0.01 µM): 1.24
relative viability ([3]; first compound 0.03162 µM): 0.309
relative viability ([3]; first compound 0.1 µM): 0.765
relative viability ([4]; first compound 0.001 µM): 0.393
relative viability ([4]; first compound 0.003162 µM): 0.447
relative viability ([4]; first compound 0.01 µM): 0.489
relative viability ([4]; first compound 0.1 µM): 0.371

EMC-BAC-2
relative viability ([1]; first compound 0.01 µM): 1.04
relative viability ([1]; first compound 0.03162 µM): 1.08
relative viability ([1]; first compound 0.1 µM): 0.997
relative viability ([1]; first compound 0.3162 µM): 1
relative viability ([1]; first compound 1 µM): 1.03
relative viability ([2]; first compound 0.001 µM): 0.284
relative viability ([2]; first compound 0.003162 µM): 0.298
relative viability ([2]; first compound 0.01 µM): 0.305
relative viability ([2]; first compound 0.03162 µM): 0.212
relative viability ([2]; first compound 0.1 µM): 0.194
relative viability ([3]; first compound 0.001 µM): 1.02
relative viability ([3]; first compound 0.003162 µM): 1.08
relative viability ([3]; first compound 0.01 µM): 1.12
relative viability ([3]; first compound 0.03162 µM): 0.975
relative viability ([3]; first compound 0.1 µM): 0.221
relative viability ([4]; first compound 0.001 µM): 0.496
relative viability ([4]; first compound 0.003162 µM): 0.492
relative viability ([4]; first compound 0.01 µM): 0.46
relative viability ([4]; first compound 0.03162 µM): 0.434
relative viability ([4]; first compound 0.1 µM): 0.432

EPLC-272H
relative viability ([1]; first compound 0.01 µM): 0.87
relative viability ([1]; first compound 0.03162 µM): 0.865
relative viability ([1]; first compound 0.1 µM): 1.03
relative viability ([1]; first compound 0.3162 µM): 0.912
relative viability ([2]; first compound 0.001 µM): 0.282
relative viability ([2]; first compound 0.003162 µM): 0.25
relative viability ([2]; first compound 0.01 µM): 0.317
relative viability ([2]; first compound 0.03162 µM): 0.105
relative viability ([2]; first compound 0.1 µM): 0.0498
relative viability ([3]; first compound 0.001 µM): 0.901
relative viability ([3]; first compound 0.003162 µM): 0.764
relative viability ([3]; first compound 0.01 µM): 0.601
relative viability ([3]; first compound 0.03162 µM): 0.0828
relative viability ([3]; first compound 0.1 µM): 0.0461
relative viability ([4]; first compound 0.001 µM): 0.367
relative viability ([4]; first compound 0.003162 µM): 0.263
relative viability ([4]; first compound 0.01 µM): 0.46
relative viability ([4]; first compound 0.03162 µM): 0.114
relative viability ([4]; first compound 0.1 µM): 0.0633

H3255
relative viability ([1]; first compound 0.01 µM): 0.736
relative viability ([1]; first compound 0.03162 µM): 0.925
relative viability ([1]; first compound 0.1 µM): 0.814
relative viability ([1]; first compound 0.3162 µM): 0.681
relative viability ([1]; first compound 1 µM): 0.659
relative viability ([2]; first compound 0.001 µM): 0.697
relative viability ([2]; first compound 0.003162 µM): 0.604
relative viability ([2]; first compound 0.01 µM): 0.686
relative viability ([2]; first compound 0.03162 µM): 0.737
relative viability ([2]; first compound 0.1 µM): 0.392
relative viability ([3]; first compound 0.001 µM): 0.876
relative viability ([3]; first compound 0.003162 µM): 0.952
relative viability ([3]; first compound 0.01 µM): 0.939
relative viability ([3]; first compound 0.03162 µM): 0.815
relative viability ([3]; first compound 0.1 µM): 0.327
relative viability ([4]; first compound 0.001 µM): 0.544
relative viability ([4]; first compound 0.003162 µM): 0.601
relative viability ([4]; first compound 0.01 µM): 0.578
relative viability ([4]; first compound 0.03162 µM): 0.423
relative viability ([4]; first compound 0.1 µM): 0.249

HARA
relative viability ([1]; first compound 0.01 µM): 1.02
relative viability ([1]; first compound 0.03162 µM): 1.08
relative viability ([1]; first compound 0.1 µM): 1.11
relative viability ([1]; first compound 0.3162 µM): 1.13
relative viability ([1]; first compound 1 µM): 1.12
relative viability ([2]; first compound 0.001 µM): 0.11
relative viability ([2]; first compound 0.003162 µM): 0.106
relative viability ([2]; first compound 0.01 µM): 0.117
relative viability ([2]; first compound 0.03162 µM): 0.0557
relative viability ([2]; first compound 0.1 µM): 0.0586
relative viability ([3]; first compound 0.001 µM): 0.93
relative viability ([3]; first compound 0.003162 µM): 0.963
relative viability ([3]; first compound 0.01 µM): 1.1
relative viability ([3]; first compound 0.03162 µM): 0.0689
relative viability ([3]; first compound 0.1 µM): 0.0561
relative viability ([4]; first compound 0.001 µM): 0.241
relative viability ([4]; first compound 0.003162 µM): 0.23
relative viability ([4]; first compound 0.01 µM): 0.252
relative viability ([4]; first compound 0.03162 µM): 0.0877
relative viability ([4]; first compound 0.1 µM): 0.155

HCC-15
relative viability ([1]; first compound 0.01 µM): 0.916
relative viability ([1]; first compound 0.1 µM): 1.06
relative viability ([1]; first compound 0.3162 µM): 0.826
relative viability ([1]; first compound 1 µM): 0.891
relative viability ([2]; first compound 0.001 µM): 0.385
relative viability ([2]; first compound 0.003162 µM): 0.393
relative viability ([2]; first compound 0.01 µM): 0.385
relative viability ([2]; first compound 0.03162 µM): 0.356
relative viability ([2]; first compound 0.1 µM): 0.0753
relative viability ([3]; first compound 0.001 µM): 0.96
relative viability ([3]; first compound 0.003162 µM): 1.19
relative viability ([3]; first compound 0.01 µM): 1.12
relative viability ([3]; first compound 0.03162 µM): 0.589
relative viability ([3]; first compound 0.1 µM): 0.149
relative viability ([4]; first compound 0.001 µM): 0.242
relative viability ([4]; first compound 0.003162 µM): 0.218
relative viability ([4]; first compound 0.01 µM): 0.238
relative viability ([4]; first compound 0.03162 µM): 0.224
relative viability ([4]; first compound 0.1 µM): 0.13

HCC-44
relative viability ([1]; first compound 0.01 µM): 0.903
relative viability ([1]; first compound 0.03162 µM): 0.751
relative viability ([1]; first compound 0.1 µM): 0.936
relative viability ([1]; first compound 0.3162 µM): 0.773
relative viability ([1]; first compound 1 µM): 0.952
relative viability ([2]; first compound 0.001 µM): 0.826
relative viability ([2]; first compound 0.003162 µM): 1.05
relative viability ([2]; first compound 0.01 µM): 1.22
relative viability ([2]; first compound 0.03162 µM): 0.303
relative viability ([2]; first compound 0.1 µM): 0.157
relative viability ([4]; first compound 0.001 µM): 0.665
relative viability ([4]; first compound 0.003162 µM): 0.605
relative viability ([4]; first compound 0.01 µM): 0.658
relative viability ([4]; first compound 0.03162 µM): 0.705
relative viability ([4]; first compound 0.1 µM): 0.685
